± gives the standard deviation of the averaged measurements.
Assays:
Test in all cases: relative viability vs DMSO control (72 h) (fraction); higher = more viable cells
[1] = tested on: SK-LMS-1
Procedure, shortened: (§1)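 After seeding at densities set for 80–90% confluence in 384-well plates, sarcoma cell lines waited 24 h before 2.5 µl of serially diluted compound was added. Source plates held 10 mM down to 0.0002 mM. Plates were incubated 72 h at 37 °C with 5% CO2, with 0.1% DMSO vehicle and a 5 µM positive control, and relative viability was taken from ATPLite as percent growth averaged over up to triplicate wells, with 1 set as full and 0 as none.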

[2] = tested on: G401
Procedure, shortened: as §1

[3] = tested on: RD-ES
Procedure, shortened: as §1

[4] = tested on: KHOS-NP
Procedure, shortened: as §1

[5] = tested on: SW872
Procedure, shortened: as §1

[6] = tested on: MES-SA
Procedure, shortened: as §1

[7] = tested on: VA-ES-BJ
Procedure, shortened: as §1

[8] = tested on: SW1353
Procedure, shortened: as §1

[9] = tested on: HT1080
Procedure, shortened: as §1

[10] = tested on: RD
Procedure, shortened: as §1

[11] = tested on: SW684
Procedure, shortened: as §1

[12] = tested on: SK-ES-1
Procedure, shortened: as §1

## COc1cc(Nc2ncc3c(n2)-c2ccc(Cl)cc2C(c2c(F)cccc2OC)=NC3)ccc1C(=O)O [Alisertib]
[1]; 0.00017 µM
  relative viability: 1.03 ± 0.066
[1]; 0.00051 µM
  relative viability: 1.02 ± 0.042
[1]; 0.00152 µM
  relative viability: 1.01 ± 0.014
[1]; 0.00457 µM
  relative viability: 1.02 ± 0.031
[1]; 0.01372 µM
  relative viability: 1 ± 0.082
[1]; 0.04115 µM
  relative viability: 0.806 ± 0.036
[1]; 0.1235 µM
  relative viability: 0.772 ± 0.013
[1]; 0.3704 µM
  relative viability: 0.78 ± 0.016
[1]; 1.111 µM
  relative viability: 0.803 ± 0.039
[1]; 3.333 µM
  relative viability: 0.815 ± 0.019
[1]; 10 µM
  relative viability: 0.678 ± 0.012
[2]; 0.00017 µM
  relative viability: 1.01 ± 0.057
[2]; 0.00051 µM
  relative viability: 0.979 ± 0.03
[2]; 0.00152 µM
  relative viability: 0.984 ± 0.024
[2]; 0.00457 µM
  relative viability: 0.966 ± 0.061
[2]; 0.01372 µM
  relative viability: 0.892 ± 0.014
[2]; 0.04115 µM
  relative viability: 0.845 ± 0.04
[2]; 0.1235 µM
  relative viability: 0.756 ± 0.024
[2]; 0.3704 µM
  relative viability: 0.706 ± 0.054
[2]; 1.111 µM
  relative viability: 0.705 ± 0.033
[2]; 3.333 µM
  relative viability: 0.637 ± 0.031
[2]; 10 µM
  relative viability: 0.563 ± 0.016
[3]; 0.00017 µM
  relative viability: 0.95 ± 0.042
[3]; 0.00051 µM
  relative viability: 0.964 ± 0.036
[3]; 0.00152 µM
  relative viability: 0.952 ± 0.049
[3]; 0.00457 µM
  relative viability: 0.909 ± 0.03
[3]; 0.01372 µM
  relative viability: 0.881 ± 0.045
[3]; 0.04115 µM
  relative viability: 0.747 ± 0.14
[3]; 0.1235 µM
  relative viability: 0.428 ± 0.013
[3]; 0.3704 µM
  relative viability: 0.256 ± 0.0056
[3]; 1.111 µM
  relative viability: 0.213 ± 0.008
[3]; 3.333 µM
  relative viability: 0.243 ± 0.013
[3]; 10 µM
  relative viability: 0.236 ± 0.0027
[4]; 0.00017 µM
  relative viability: 1.08 ± 0.019
[4]; 0.00051 µM
  relative viability: 1.1 ± 0.021
[4]; 0.00152 µM
  relative viability: 1.09 ± 0.021
[4]; 0.00457 µM
  relative viability: 1.08 ± 0.019
[4]; 0.01372 µM
  relative viability: 1.09 ± 0.013
[4]; 0.04115 µM
  relative viability: 1.07 ± 0.014
[4]; 0.1235 µM
  relative viability: 1.06 ± 0.018
[4]; 0.3704 µM
  relative viability: 1.05 ± 0.053
[4]; 1.111 µM
  relative viability: 0.951 ± 0.051
[4]; 3.333 µM
  relative viability: 0.925 ± 0.034
[4]; 10 µM
  relative viability: 0.672 ± 0.012
[5]; 0.00017 µM
  relative viability: 1.02 ± 0.048
[5]; 0.00051 µM
  relative viability: 0.974 ± 0.054
[5]; 0.00152 µM
  relative viability: 0.989 ± 0.031
[5]; 0.00457 µM
  relative viability: 1.03 ± 0.02
[5]; 0.01372 µM
  relative viability: 1.01 ± 0.014
[5]; 0.04115 µM
  relative viability: 1.01 ± 0.022
[5]; 0.1235 µM
  relative viability: 0.959 ± 0.029
[5]; 0.3704 µM
  relative viability: 0.731 ± 0.017
[5]; 1.111 µM
  relative viability: 0.759 ± 0.014
[5]; 3.333 µM
  relative viability: 0.738 ± 0.029
[5]; 10 µM
  relative viability: 0.661 ± 0.013
[6]; 0.00017 µM
  relative viability: 0.914 ± 0.021
[6]; 0.00051 µM
  relative viability: 0.932 ± 0.031
[6]; 0.00152 µM
  relative viability: 0.9332 ± 0.0036
[6]; 0.00457 µM
  relative viability: 0.933 ± 0.032
[6]; 0.01372 µM
  relative viability: 0.9174 ± 0.0058
[6]; 0.04115 µM
  relative viability: 0.621 ± 0.018
[6]; 0.1235 µM
  relative viability: 0.363 ± 0.005
[6]; 0.3704 µM
  relative viability: 0.353 ± 0.0075
[6]; 1.111 µM
  relative viability: 0.328 ± 0.014
[6]; 3.333 µM
  relative viability: 0.325 ± 0.014
[6]; 10 µM
  relative viability: 0.316 ± 0.011
[7]; 0.00017 µM
  relative viability: 0.995 ± 0.029
[7]; 0.00051 µM
  relative viability: 0.997 ± 0.029
[7]; 0.00152 µM
  relative viability: 0.984 ± 0.052
[7]; 0.00457 µM
  relative viability: 0.992 ± 0.019
[7]; 0.01372 µM
  relative viability: 0.969 ± 0.042
[7]; 0.04115 µM
  relative viability: 0.919 ± 0.015
[7]; 0.1235 µM
  relative viability: 0.747 ± 0.0085
[7]; 0.3704 µM
  relative viability: 0.604 ± 0.063
[7]; 1.111 µM
  relative viability: 0.571 ± 0.03
[7]; 3.333 µM
  relative viability: 0.523 ± 0.027
[7]; 10 µM
  relative viability: 0.505 ± 0.03
[8]; 0.00017 µM
  relative viability: 0.987 ± 0.036
[8]; 0.00051 µM
  relative viability: 0.972 ± 0.029
[8]; 0.00152 µM
  relative viability: 0.969 ± 0.024
[8]; 0.00457 µM
  relative viability: 0.961 ± 0.056
[8]; 0.01372 µM
  relative viability: 0.976 ± 0.021
[8]; 0.04115 µM
  relative viability: 0.921 ± 0.039
[8]; 0.1235 µM
  relative viability: 0.886 ± 0.062
[8]; 0.3704 µM
  relative viability: 0.908 ± 0.048
[8]; 1.111 µM
  relative viability: 0.85 ± 0.031
[8]; 3.333 µM
  relative viability: 0.817 ± 0.033
[8]; 10 µM
  relative viability: 0.685 ± 0.025
[9]; 0.00017 µM
  relative viability: 1.11 ± 0.034
[9]; 0.00051 µM
  relative viability: 1.07 ± 0.028
[9]; 0.00152 µM
  relative viability: 1.08 ± 0.018
[9]; 0.00457 µM
  relative viability: 1.06 ± 0.046
[9]; 0.01372 µM
  relative viability: 1.07 ± 0.03
[9]; 0.04115 µM
  relative viability: 0.994 ± 0.039
[9]; 0.1235 µM
  relative viability: 0.974 ± 0.032
[9]; 0.3704 µM
  relative viability: 0.876 ± 0.026
[9]; 1.111 µM
  relative viability: 0.766 ± 0.037
[9]; 3.333 µM
  relative viability: 0.715 ± 0.019
[9]; 10 µM
  relative viability: 0.668 ± 0.022
[10]; 0.00017 µM
  relative viability: 1.08 ± 0.029
[10]; 0.00051 µM
  relative viability: 1.1 ± 0.035
[10]; 0.00152 µM
  relative viability: 1.09 ± 0.028
[10]; 0.00457 µM
  relative viability: 1.06 ± 0.015
[10]; 0.01372 µM
  relative viability: 1.07 ± 0.057
[10]; 0.04115 µM
  relative viability: 1.04 ± 0.053
[10]; 0.1235 µM
  relative viability: 0.863 ± 0.031
[10]; 0.3704 µM
  relative viability: 0.679 ± 0.028
[10]; 1.111 µM
  relative viability: 0.517 ± 0.04
[10]; 3.333 µM
  relative viability: 0.517 ± 0.037
[10]; 10 µM
  relative viability: 0.474 ± 0.031
[11]; 0.00017 µM
  relative viability: 1.16 ± 0.033
[11]; 0.00051 µM
  relative viability: 1.17 ± 0.055
[11]; 0.00152 µM
  relative viability: 1.18 ± 0.02
[11]; 0.00457 µM
  relative viability: 1.15 ± 0.025
[11]; 0.01372 µM
  relative viability: 1.1 ± 0.054
[11]; 0.04115 µM
  relative viability: 1.09 ± 0.04
[11]; 0.1235 µM
  relative viability: 1.01 ± 0.052
[11]; 0.3704 µM
  relative viability: 1.01 ± 0.0077
[11]; 1.111 µM
  relative viability: 0.983 ± 0.045
[11]; 3.333 µM
  relative viability: 0.919 ± 0.094
[11]; 10 µM
  relative viability: 0.869 ± 0.054
[12]; 0.00017 µM
  relative viability: 1.01 ± 0.071
[12]; 0.00051 µM
  relative viability: 1.05 ± 0.024
[12]; 0.00152 µM
  relative viability: 1.05 ± 0.034
[12]; 0.00457 µM
  relative viability: 1.01 ± 0.014
[12]; 0.01372 µM
  relative viability: 0.965 ± 0.051
[12]; 0.04115 µM
  relative viability: 0.748 ± 0.035
[12]; 0.1235 µM
  relative viability: 0.197 ± 0.012
[12]; 0.3704 µM
  relative viability: 0.0886 ± 0.0037
[12]; 1.111 µM
  relative viability: 0.0443 ± 0.0024
[12]; 3.333 µM
  relative viability: 0.0464 ± 0.0026
[12]; 10 µM
  relative viability: 0.0555 ± 0.0075

From the supplement of paper PMC10883282
